Reference: ChEMBL document CHEMBL5223091, “Targeting the Mitotic Kinesin KIF18A in Chromosomally Unstable Cancers: Hit Optimization Toward an In Vivo Chemical Probe” (J Med Chem, 2022)

Experiments:
[1] = Metabolic stability in mouse liver microsomes assessed as intrinsic clearance at 0.5 uM incubated upto 40 mins by LCMS analysis; format: ADME, Microsome; conditions: read-out: CLH
[2] = Metabolic stability in human liver microsomes assessed as intrinsic clearance at 0.5 uM incubated upto 40 mins by LCMS analysis; format: ADME, Microsome; conditions: read-out: CLH
OVCAR-3 [3] = experiment: Induction of mitotic arrest in human OVCAR-3 cells assessed as p-histone H3 incubated for 24 hrs by mitotic - imaging assay; format: functional, cell-based; conditions: OVCAR-3, 24 h
OVCAR-3 [4] = experiment: Antiproliferative activity against human OVCAR-3 cells by nuclear count assay; format: functional, cell-based
[5] = Cmax in CD-1 mouse xenografted with human OVCAR-3 cells at 100 mg/kg, ip by LC-MS/MS analysis; format: ADME, organism-based; set-up: dose 100 mg/kg, route ip; conditions: in vivo
[6] = AUC (0 to 24 hrs) in CD-1 mouse xenografted with human OVCAR-3 cells at 100 mg/kg, ip by LC-MS/MS analysis; format: ADME, organism-based; set-up: dose 100 mg/kg, route ip; conditions: in vivo
[7] = Plasma concentration in CD-1 mouse xenografted with human OVCAR-3 cells at 100 mg/kg, ip measured upto 24 hrs by LC-MS/MS analysis; format: ADME, organism-based
[8] = Unbound fraction in CD-1 mouse plasma xenografted with human OVCAR-3 cells at 100 mg/kg, ip by LC-MS/MS analysis; format: ADME, organism-based
[9] = biological target: T1, Kinesin-like protein KIF18A (Homo sapiens, UniProt Q8NI77); experiment: Inhibition of recombinant His-tagged human KIF18A (1 to 467 residues) expressed in Trichoplusia ni insect cells assessed as inhibition of microtubule-stimulated ATPase activity preincubated for 30 mins followed by ATP addition and further incubated for 15 mins by ADP-Glo reagent based assay; set-up: species or system Insect cell
T1 sequence (Q8NI77 whole entry): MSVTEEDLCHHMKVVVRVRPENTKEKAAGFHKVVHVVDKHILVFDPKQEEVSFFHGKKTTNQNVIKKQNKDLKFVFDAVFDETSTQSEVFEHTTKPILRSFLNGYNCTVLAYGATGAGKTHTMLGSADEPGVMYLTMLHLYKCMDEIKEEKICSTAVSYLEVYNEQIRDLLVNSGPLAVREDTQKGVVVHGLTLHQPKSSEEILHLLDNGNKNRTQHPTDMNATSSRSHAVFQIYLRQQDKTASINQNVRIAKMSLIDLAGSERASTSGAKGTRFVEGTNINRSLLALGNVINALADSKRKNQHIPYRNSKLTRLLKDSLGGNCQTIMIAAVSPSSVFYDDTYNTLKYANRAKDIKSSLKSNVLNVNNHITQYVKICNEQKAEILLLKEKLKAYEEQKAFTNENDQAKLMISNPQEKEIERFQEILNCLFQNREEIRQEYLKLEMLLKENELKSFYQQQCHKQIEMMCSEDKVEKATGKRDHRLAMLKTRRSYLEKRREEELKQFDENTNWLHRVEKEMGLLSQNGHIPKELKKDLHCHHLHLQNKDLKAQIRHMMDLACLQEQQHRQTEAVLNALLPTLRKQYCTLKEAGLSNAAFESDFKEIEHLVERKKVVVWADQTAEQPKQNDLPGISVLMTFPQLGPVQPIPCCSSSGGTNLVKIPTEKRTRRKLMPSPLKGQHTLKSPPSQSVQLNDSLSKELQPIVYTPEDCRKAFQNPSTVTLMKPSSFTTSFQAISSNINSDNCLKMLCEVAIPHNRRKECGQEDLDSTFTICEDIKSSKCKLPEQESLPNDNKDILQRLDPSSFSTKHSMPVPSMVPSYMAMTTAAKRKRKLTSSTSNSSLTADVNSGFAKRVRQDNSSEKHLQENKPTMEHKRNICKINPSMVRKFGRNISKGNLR

[10] = biological target: T2, Kinesin-like protein KIF11 (Homo sapiens, UniProt P52732); experiment: Inhibition of recombinant GST-tagged human Eg5 assessed as inhibition of microtubule-stimulated ATPase activity preincubated for 30 mins followed by ATP addition and further incubated for 15 mins by ADP-Glo reagent based assay
T2 sequence (P52732 whole entry): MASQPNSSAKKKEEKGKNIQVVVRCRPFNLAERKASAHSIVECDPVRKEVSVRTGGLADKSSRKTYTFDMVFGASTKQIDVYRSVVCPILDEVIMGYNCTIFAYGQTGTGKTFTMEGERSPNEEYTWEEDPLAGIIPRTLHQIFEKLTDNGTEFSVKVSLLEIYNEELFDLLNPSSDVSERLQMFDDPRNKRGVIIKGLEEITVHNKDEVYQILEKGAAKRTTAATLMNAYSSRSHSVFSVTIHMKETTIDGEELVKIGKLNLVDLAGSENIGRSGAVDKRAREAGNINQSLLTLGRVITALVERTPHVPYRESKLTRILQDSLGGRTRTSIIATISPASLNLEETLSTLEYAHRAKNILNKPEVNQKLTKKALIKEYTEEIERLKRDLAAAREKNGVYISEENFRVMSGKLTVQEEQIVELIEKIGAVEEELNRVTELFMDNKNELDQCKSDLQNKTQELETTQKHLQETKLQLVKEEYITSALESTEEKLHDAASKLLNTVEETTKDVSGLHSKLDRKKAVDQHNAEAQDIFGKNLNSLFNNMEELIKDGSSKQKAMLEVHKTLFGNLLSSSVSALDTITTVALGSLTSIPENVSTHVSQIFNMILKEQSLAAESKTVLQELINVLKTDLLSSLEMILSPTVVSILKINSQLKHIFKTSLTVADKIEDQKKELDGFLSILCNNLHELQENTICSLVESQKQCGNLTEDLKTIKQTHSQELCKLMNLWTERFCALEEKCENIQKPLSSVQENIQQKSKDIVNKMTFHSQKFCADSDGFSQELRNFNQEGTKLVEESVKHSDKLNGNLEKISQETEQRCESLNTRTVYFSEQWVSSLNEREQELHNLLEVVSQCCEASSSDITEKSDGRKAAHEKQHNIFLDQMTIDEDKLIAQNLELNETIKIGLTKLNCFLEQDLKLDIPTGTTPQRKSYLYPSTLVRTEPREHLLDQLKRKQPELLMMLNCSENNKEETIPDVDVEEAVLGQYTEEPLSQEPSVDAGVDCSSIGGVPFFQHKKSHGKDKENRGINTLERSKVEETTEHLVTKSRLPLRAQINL

[11] = biological target: Centromere-associated protein E (Homo sapiens, UniProt Q02224); experiment: Inhibition of recombinant GST-tagged human CENP-E assessed as inhibition of microtubule-stimulated ATPase activity preincubated for 30 mins followed by ATP addition and further incubated for 15 mins by ADP-Glo reagent based assay
MDA-MB-157 = experiment: Induction of mitotic arrest in TP53 mutant human MDA-MB-157 cells assessed as multipolar spindle arrays by measuring pericentriolar material incubated for 24 hrs by mitotic index assay; format: functional, cell-based; conditions: MDA-MB-157, 24 h
[12] = Clearance in CD-1 mouse at 1 mg/kg, iv and 10 mg/kg, po; format: ADME, organism-based; conditions: in vivo
[13] = Volume of distribution at steady state in CD-1 mouse at 1 mg/kg, iv and 10 mg/kg, po; format: ADME, organism-based; conditions: in vivo
[14] = Half life in CD-1 mouse at 1 mg/kg, iv and 10 mg/kg, po; format: ADME, organism-based; conditions: in vivo
[15] = Cmax in CD-1 mouse at 1 mg/kg, iv and 10 mg/kg, po; format: ADME, organism-based; set-up: dose 10 mg/kg, route po; conditions: in vivo
[16] = Oral bioavailability in CD-1 mouse at 10 mg/kg; format: ADME, organism-based; conditions: in vivo
[17] = Unbound fraction in plasma (unknown origin) by ultracentrifugation; format: ADME, cell-free

Centromere-associated protein E, sequence (Q02224 whole entry): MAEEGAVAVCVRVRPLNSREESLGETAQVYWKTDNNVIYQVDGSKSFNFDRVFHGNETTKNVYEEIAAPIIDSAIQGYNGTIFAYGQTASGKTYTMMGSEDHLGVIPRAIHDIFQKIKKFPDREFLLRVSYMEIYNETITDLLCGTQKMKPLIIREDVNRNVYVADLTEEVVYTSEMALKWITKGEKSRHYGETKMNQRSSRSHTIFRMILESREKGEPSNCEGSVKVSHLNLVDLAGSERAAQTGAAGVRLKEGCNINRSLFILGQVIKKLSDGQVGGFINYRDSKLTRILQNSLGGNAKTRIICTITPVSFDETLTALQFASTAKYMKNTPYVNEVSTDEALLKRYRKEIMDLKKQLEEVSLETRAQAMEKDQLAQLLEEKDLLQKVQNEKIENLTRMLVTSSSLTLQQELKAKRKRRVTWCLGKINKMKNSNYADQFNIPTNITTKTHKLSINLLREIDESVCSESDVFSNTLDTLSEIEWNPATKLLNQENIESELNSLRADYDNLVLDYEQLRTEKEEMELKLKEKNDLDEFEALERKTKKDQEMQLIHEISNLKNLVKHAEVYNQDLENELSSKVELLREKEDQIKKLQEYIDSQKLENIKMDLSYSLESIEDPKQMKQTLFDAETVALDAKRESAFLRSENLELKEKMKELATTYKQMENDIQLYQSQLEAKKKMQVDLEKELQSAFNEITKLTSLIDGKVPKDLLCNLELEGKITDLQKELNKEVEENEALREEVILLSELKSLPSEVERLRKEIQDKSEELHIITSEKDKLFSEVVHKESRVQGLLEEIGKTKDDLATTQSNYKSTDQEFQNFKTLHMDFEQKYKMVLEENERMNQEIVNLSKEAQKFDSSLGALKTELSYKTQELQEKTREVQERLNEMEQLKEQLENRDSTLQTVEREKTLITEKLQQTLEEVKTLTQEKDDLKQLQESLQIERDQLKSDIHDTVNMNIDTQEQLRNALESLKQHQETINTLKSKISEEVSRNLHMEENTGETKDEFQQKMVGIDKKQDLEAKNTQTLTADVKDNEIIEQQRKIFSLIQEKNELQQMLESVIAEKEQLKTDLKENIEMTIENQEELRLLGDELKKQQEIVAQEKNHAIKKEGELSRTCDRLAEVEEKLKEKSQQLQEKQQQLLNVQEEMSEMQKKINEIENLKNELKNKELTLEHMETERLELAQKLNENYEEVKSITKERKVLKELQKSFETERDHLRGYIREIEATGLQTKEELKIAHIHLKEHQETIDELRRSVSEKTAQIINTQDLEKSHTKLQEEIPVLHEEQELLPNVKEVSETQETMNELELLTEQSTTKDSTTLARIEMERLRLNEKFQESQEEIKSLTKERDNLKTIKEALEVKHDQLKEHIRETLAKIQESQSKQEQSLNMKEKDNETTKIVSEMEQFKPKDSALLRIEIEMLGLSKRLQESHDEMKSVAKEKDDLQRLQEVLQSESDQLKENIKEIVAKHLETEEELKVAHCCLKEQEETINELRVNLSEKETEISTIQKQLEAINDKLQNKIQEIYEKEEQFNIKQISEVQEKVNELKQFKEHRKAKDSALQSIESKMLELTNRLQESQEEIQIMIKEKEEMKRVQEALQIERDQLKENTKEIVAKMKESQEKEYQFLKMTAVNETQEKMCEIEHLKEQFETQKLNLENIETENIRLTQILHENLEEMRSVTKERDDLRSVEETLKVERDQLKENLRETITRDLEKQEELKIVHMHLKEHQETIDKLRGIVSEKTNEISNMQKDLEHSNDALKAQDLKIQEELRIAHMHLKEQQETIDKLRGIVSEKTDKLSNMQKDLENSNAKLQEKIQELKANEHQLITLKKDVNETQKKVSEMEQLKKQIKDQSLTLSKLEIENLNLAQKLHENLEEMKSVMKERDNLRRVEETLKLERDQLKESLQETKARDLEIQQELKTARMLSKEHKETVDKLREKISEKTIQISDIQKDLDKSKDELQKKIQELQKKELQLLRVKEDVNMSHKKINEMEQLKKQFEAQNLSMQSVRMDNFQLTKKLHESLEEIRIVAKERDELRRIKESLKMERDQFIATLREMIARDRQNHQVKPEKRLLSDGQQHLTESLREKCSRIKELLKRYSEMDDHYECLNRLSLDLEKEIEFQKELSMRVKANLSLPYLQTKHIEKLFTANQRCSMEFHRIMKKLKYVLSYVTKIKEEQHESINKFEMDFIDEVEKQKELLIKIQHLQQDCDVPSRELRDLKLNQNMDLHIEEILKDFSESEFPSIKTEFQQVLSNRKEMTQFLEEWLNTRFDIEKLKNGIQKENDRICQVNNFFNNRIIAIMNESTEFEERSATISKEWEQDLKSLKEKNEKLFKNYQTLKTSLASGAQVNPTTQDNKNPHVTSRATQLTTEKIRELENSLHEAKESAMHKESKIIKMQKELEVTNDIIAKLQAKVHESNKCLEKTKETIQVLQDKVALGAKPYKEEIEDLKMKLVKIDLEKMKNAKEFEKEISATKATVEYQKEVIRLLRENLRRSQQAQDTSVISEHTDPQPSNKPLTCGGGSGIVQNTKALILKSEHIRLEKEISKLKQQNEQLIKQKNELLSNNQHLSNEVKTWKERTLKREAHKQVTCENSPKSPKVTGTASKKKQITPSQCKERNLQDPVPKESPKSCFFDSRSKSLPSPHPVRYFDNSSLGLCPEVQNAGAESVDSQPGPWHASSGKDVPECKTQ

| SMILES | microsomal CLint at 0.5 µM [1] | microsomal CLint at 0.5 µM [2] | EC50 (OVCAR-3 [3]) | EC50 (OVCAR-3 [4]) | IC50 [9] | also measured |
| --- | --- | --- | --- | --- | --- | --- |
| CC(C)(C)NS(=O)(=O)c1cccc(NC(=O)c2ccc(NS(=O)(=O)C3(C)CC3)cc2N2CCC3(CC2)CC3)c1 | 90 µL/min/mg | 90 µL/min/mg | 11 nM | 11 nM | – | Cmax [5]: 26.5 µM; AUC(0-t) [6]: 269 µM·h; concentration at 24 h [7]: 0.8 µM; fraction unbound [8]: 0.015 |
| O=C(Nc1cccc(S(=O)(=O)NC2CC2)c1)c1cccnc1N1CCC2(CC1)CC2 | > 399 µL/min/mg | > 399 µL/min/mg | 2260 nM | 1790 nM | 580 nM | – |
| O=C(Nc1cccc(S(=O)(=O)N2CCCC2)c1)c1cccnc1N1CCC2(CC1)CC2 | > 399 µL/min/mg | > 399 µL/min/mg | 5460 nM | 4420 nM | 1830 nM | – |
| CN(CCO)c1ccc(C(=O)Nc2cccc(S(=O)(=O)C3CCCC3)n2)c(N2CCC3(CC2)CC3)c1 | > 399 µL/min/mg | > 399 µL/min/mg | 449 nM | 358 nM | 253 nM | – |
| CC(C)(C)NS(=O)(=O)c1cccc(NC(=O)c2ccc(NC(C)(C)CO)cc2N2CCC3(CC2)CC3)n1 | > 399 µL/min/mg | 189 µL/min/mg | 28 nM | 23 nM | 140 nM | – |
| O=C(Nc1cccc(S(=O)(=O)C2COC2)c1)c1cccnc1N1CCC2(CC1)CC2 | 385 µL/min/mg | 183 µL/min/mg | 14800 nM | 12600 nM | 8880 nM | – |
| O=C(Nc1cccc(S(=O)(=O)N2CCCCC2)c1)c1cn[nH]c1-c1ccc(Cl)cc1 | > 399 µL/min/mg | 255 µL/min/mg | – | – | 520 nM | IC50 [10]: > 100000 nM; IC50 [11]: > 100000 nM; IC50 (MDA-MB-157): 8800 nM |
| CC(C)(O)CNc1ccc(C(=O)Nc2cccc(S(=O)(=O)C3CCCC3)n2)c(N2CCC3(CC2)CC3)c1 | > 399 µL/min/mg | > 399 µL/min/mg | 228 nM | 229 nM | 165 nM | – |
| CC(C)(C)NS(=O)(=O)c1cccc(NC(=O)c2cccnc2N2CCC3(CC2)CC3)c1 | > 399 µL/min/mg | > 399 µL/min/mg | 1030 nM | 840 nM | 320 nM | – |
| CC1(C)CCN(c2ncccc2C(=O)Nc2cccc(S(=O)(=O)C3CCCC3)c2)CC1 | > 399 µL/min/mg | > 399 µL/min/mg | 2720 nM | 2140 nM | 1250 nM | – |
| O=[N+]([O-])c1cc(Cl)ccc1S(=O)(=O)c1ccccc1 | – | – | – | – | 1700 nM | – |
| O=C(Nc1cccc(S(=O)(=O)C2CCCC2)c1)c1cccnc1N1CCC(F)(F)CC1 | > 399 µL/min/mg | > 399 µL/min/mg | 4630 nM | 4780 nM | 5310 nM | – |
| COc1ccc(C(=O)Nc2cccc(S(=O)(=O)C3CCCC3)n2)c(N2CCC3(CC2)CC3)c1 | > 399 µL/min/mg | > 399 µL/min/mg | 2660 nM | 2350 nM | 360 nM | – |

Further compounds by falling IC50 [9], results first:

| microsomal CLint at 0.5 µM [1] | microsomal CLint at 0.5 µM [2] | EC50 (OVCAR-3 [3]) | EC50 (OVCAR-3 [4]) | IC50 [9] | SMILES | also measured |
| --- | --- | --- | --- | --- | --- | --- |
| > 399 µL/min/mg | 154 µL/min/mg | 45800 nM | 31200 nM | 31600 nM | CC(C)(CO)S(=O)(=O)c1cccc(NC(=O)c2cccnc2N2CCC3(CC2)CC3)c1 | – |
| > 399 µL/min/mg | > 399 µL/min/mg | 6350 nM | 5030 nM | 6160 nM | O=C(Nc1cccc(S(=O)(=O)C2CCCC2)c1)c1cccnc1N1CCCCC1 | IC50 [10]: > 100000 nM; IC50 [11]: > 100000 nM; IC50 (MDA-MB-157): 4800 nM |
| > 399 µL/min/mg | 375 µL/min/mg | 4290 nM | 4480 nM | 3150 nM | CC(C)S(=O)(=O)c1cccc(NC(=O)c2cccnc2N2CCC3(CC2)CC3)c1 | – |
| 58 µL/min/mg | 83 µL/min/mg | 75 nM | 62 nM | 166 nM | CC(C)(C)NS(=O)(=O)c1cccc(NC(=O)c2ccc(NC3(CO)CC3)cc2N2CCC3(CC2)CC3)n1 | CL [12]: 5 mL/min/kg; Vdss [13]: 0.3 L/kg; half-life [14]: 1.5 h; Cmax [15]: 5.45 µM; bioavailability [16]: 22%; fraction unbound [17]: 0.011 |
| 76 µL/min/mg | 74 µL/min/mg | 190 nM | 110 nM | 135 nM | CC(C)(C)NS(=O)(=O)c1cccc(NC(=O)c2ncc(NC(C)(C)CO)nc2N2CCC3(CC2)CC3)c1 | CL [12]: 5 mL/min/kg; Vdss [13]: 0.7 L/kg; half-life [14]: 3.6 h; Cmax [15]: 2.43 µM; bioavailability [16]: 13%; fraction unbound [17]: 0.019 |
| > 399 µL/min/mg | > 399 µL/min/mg | 177 nM | 117 nM | 92 nM | O=C(Nc1cccc(S(=O)(=O)C2CCCC2)n1)c1ccc(NCCO)cc1N1CCC2(CC1)CC2 | – |
| > 399 µL/min/mg | > 399 µL/min/mg | 43 nM | 42 nM | 81 nM | CC(C)(C)NS(=O)(=O)c1cccc(NC(=O)c2ccc(NC(C)(C)CO)nc2N2CCC3(CC2)CC3)n1 | – |
| > 399 µL/min/mg | > 399 µL/min/mg | 48 nM | 32 nM | 80 nM | CC(C)(CO)Nc1ccc(C(=O)Nc2cccc(S(=O)(=O)NC3CCCC3)n2)c(N2CCC3(CC2)CC3)c1 | – |
| – | – | – | – | 32 nM | O=C(Nc1cccc(C2(C(F)(F)F)N=N2)c1)c1ccc(NS(=O)(=O)CCO)nc1N1CCC2(CC1)CC2 | – |
